Where two headings read alike, the source gives them in different places.
How the values were obtained:
Fish = test: Tank diving experiments (Example 8); assay type: in vivo
Protocol: Fish were exposed to drug, either pure CBD, CBD containing terpenes, or CBD plus CBG, in a litre of water for 30 min prior to being transferred to a novel tank containing fresh fish water in the absence of drug using a net and their behaviour recorded over a 6 min period using a camera mounted to one side. The vertical position of the fish in the tank can reliably be used as a proxy for an individual's anxiety. For example, the less time a fish spends on the bottom of the tank the less anxious. The response variables were number of visits to the top half of the tank, distance from the bottom of the tank, and proportion of time spent in the bottom third of the tank. Time spent on the bottom, distance travelled and number of top half visits determining using Ethovision software (Noldus). Water was changed, tanks and fish nets cleaned between each fish.
The anxiolytic concentration of CBD was first assessed by treating the fish with 0-15 mg/L CBD.
The ratio of CBD minus terpenes:CBD plus terpenes tested was 2:0, 1.5:0.5, 1:1, 0.5:1.5 and 0:2.

5 dpf zebrafish larvae = assay type: in vivo, Zebrafish (Danio rerio)
Protocol: Fish were bred and reared in the aquarium facility at Queen Mary University of London, licenced by the UK Home Office. Zebrafish (Danio rerio) adults from the Tuebingen wild type (TUWT) line were kept in glass breeding tanks in fish water that contain sodium bicarbonate (0.9 mM), calcium sulphate (0.05 mM) and marine salts (Sigma, Poole, UK; 0.018 g/l). Fish were maintained on a constant 14 h light: 10 h dark cycle at 28° C. They were fed 2 times a day with Zmsystems® ZM-000 high protein food particle (Tecniplast® UK. London) from 5 dpf-10 dpf, ZM-100 and paramecium from 11 dpf-14 dpf, and, ZM-200 and brineshrimp from 14 dpf-30 dpf. At one month of age, animals were transferred into the aquaria where they were fed Zmsystems® flake food and brineshrimp.
After incubation the 48-well plate was placed in a DanioVision Observation Chamber (Noldus) and the larvae were subjected to a forced dark/light transition assay while still in the compound solution. The assay consisted of a 10 min baseline period in the dark, followed by a 10 min light challenge, followed by a 15 min dark period. DanioVision Observation Chamber controlled the lighting and recorded the assay with an infrared camera (resolution, 30 frames per second (fps)). Footage obtained was processed by EthoVision XT NUMBER (Noldus). Mean distance moved was measured with 10 second intervals.
All statistical analyses were carried out in R version 3.2.2 (R core developer team reference). Data distributions and model fit were initially assessed visually. AIC values were used in model selection. Due to difference in variance between groups we fitted a linear mixed model (LMM) in the gls package (ref).
It was first assessed whether the different compounds and concentrations were associated with differences in locomotion after 30 min exposure. We subsetted the last min in the baseline and fitted an LME with mean distance moved as the response variable, compound as the fixed effect, and individual as the random effect, with a variance structure for compound.
The light challenge and dark phase were subsetted to assess if different compounds and concentrations were associated with different patterns of movement. In the light challenge the increase of movement over time was considered recovery. In the dark phase decrease of movement was considered recovery. We fitted an LME with mean distance moved (in 10 second time bins) as the response variable, the interaction between time and concentration as a fixed effect, individual as the random effect and introduced a variant structure to account for the heterogeneity in variance between drugs.

larvae = test: Forced light/dark transition assay screening hemp extracts, diazepam and caffeine (Example 5); assay type: in vivo, zebrafish; settings: for response when the light is switched on (from trace): whole duration of the assay
Protocol: Our forced light/dark transition protocol was as follows. First, there was 10 minutes of total darkness (which we refer to as the baseline period; compounds were introduced at the beginning of the baseline period, and 10 minutes were allotted to allow for drug absorption and acclimation). Next, there was a period of five minutes of light exposure followed by five minutes of dark exposure, repeated three times. Finally, there was an additional five minutes of dark exposure.
A variety of statistical techniques were used to address our hypotheses about the potential anxiolytic and anxiogenic effects of four compounds. In outline: • 1) Overall models were carried out using linear mixed-effect models • 2) Deliberate pairwise comparisons between controls and dosages of interest were carried out using appropriate two-sample comparison tests
All statistical analyses were carried out in R version 3.2.2 (R core developer team). Overall models were linear mixed-effects models (LMMs), and were fitted using the Ime4 package (Bates, Machler, Bolker, & Walker, 2015). Data were transformed as indicated to fit the assumptions of LMMs. Posthoc tests were performed using the multcomp package in R. Data distributions were initially assessed visually and model diagnostics were subsequently checked to assure appropriate fits.
Comparisons between patterns of activity during the light phases (i.e. rate of recovery during light phases, which indicates a possible anxiolytic or anxiogenic effect) were performed by analysing the slope of the linear regression function of individual mean distance vs time during light phases.
For pairwise comparisons on specific concentrations, nonparametric tests are used as indicated on non-normally distributed data.

5 dpf larvae = test: Forced light/dark transition test, 10 min dark-(5 min light-5 min dark)*3-5 min dark (Example 4); assay type: in vivo, zebrafish
Protocol: • All the tests were done with 5 dpf larvae unless stated otherwise. • A forced light/dark transition test was used. (10 min dark-(5 min light-5 min dark)*3-5 min dark) • The dose response curve was made as follows; • The locomotor activity of the larvae at the last min of acclimation (min 9-10 in the assay), was taken • The mean for each larvae over this period of time was calculated • Then the mean of each condition was calculated • The means plotted are relative to the control, control was set at 1

[1] = 2 mg/L CBD in combination with 0-5 mg/L CBG
[2] = 1% ethanol, 80 mg/L caffeine, 250 μg/L fluoxetine, 100 mM NaCl

SMILES: C=C(C)[C@@H]1CCC(C)=C[C@H]1c1c(O)cc(CCCCC)cc1O [CBD, Cannabidiol]
- anxiolytic effect in tank diving (top half visits, distance from bottom, time in bottom third) (Fish; 0-15 mg/L CBD, 30 min exposure, 6 min recording): anxiolytic effect

SMILES: CCCCCc1cc(O)c(C/C=C(\C)CCC=C(C)C)c(O)c1 [CBG, Cannabigerol]
- anxiolytic / anxiogenic effect of CBG in the mixture (Fish; [1]): displays no anxiolytic effect, but may potentially have an undesirable anxiogenic effect
- distance from the bottom of the tank (Fish; [1]): no significant change in the distance from the bottom of the tank with increasing CBG concentration
- frequency of visits to the top half of the tank (Fish; [1]): decreased with increasing concentration of CBG
- proportion of time spent in the bottom third of the tank (Fish; [1]): spend a greater proportion of time in the bottom third of the tank

SMILES: CNCCC(Oc1ccc(C(F)(F)F)cc1)c1ccccc1 (centres unmarked) [Fluoxetine, fluoxetine]
- basal locomotion (last minute of baseline) vs DMSO (5 dpf zebrafish larvae; [2]): move significantly less than DMSO
- movement in the beginning of the dark period / in the dark phase vs DMSO (5 dpf zebrafish larvae; [2]): move less overall in the dark phase
- rate of recovery in the dark phase (decrease of movement over time) vs DMSO (5 dpf zebrafish larvae; [2]): recover less over time
- rate of recovery in the light challenge (increase of movement over time) vs DMSO (5 dpf zebrafish larvae; [2]): recover less over time

SMILES: [Cl-].[Na+] [NaCl]
- basal locomotion (last minute of baseline) vs DMSO (5 dpf zebrafish larvae; zebrafish, in vivo): no difference in locomotion
- freezing in the light challenge vs DMSO (5 dpf zebrafish larvae; zebrafish, in vivo): froze less
- movement in the beginning of the dark period / in the dark phase vs DMSO (5 dpf zebrafish larvae; zebrafish, in vivo): no difference in movement in the beginning of the dark period
- rate of recovery in the dark phase (decrease of movement over time) vs DMSO (5 dpf zebrafish larvae; zebrafish, in vivo): recovers slower than DMSO
- rate of recovery in the light challenge (increase of movement over time) vs DMSO (5 dpf zebrafish larvae; zebrafish, in vivo): did not recover differently from DMSO

SMILES: Cn1c(=O)c2c(ncn2C)n(C)c1=O [caffeine]
- dosage with significantly lower locomotion than control larvae (Tukey posthoc) (larvae; after ~10 minutes of exposure): 80 mg/L
- dosage as predictor of mean distance moved after ~10 minutes of exposure (LMM) (larvae; last minute of baseline, dark): Dosage was a significant predictor of mean distance moved after 10 minutes of exposure
- dosages significantly different from the control during light phases (Tukey posthoc pairwise comparison) (larvae; light phases): ≥ 40 mg/L
- time×dosage and dosage×light phase number as predictors of mean distance moved during light phases (LMM) (larvae; light phases): Both fixed effects were significant predictors of mean distance moved
- response when the light is switched on (from trace) (larvae): much the same for all doses
- basal locomotion (last minute of baseline) vs DMSO (5 dpf zebrafish larvae; [2]): move significantly less than DMSO
- freezing in the light challenge vs DMSO (5 dpf zebrafish larvae; [2]): froze less in the beginning of the light challenge
- movement in the beginning of the dark period / in the dark phase vs DMSO (5 dpf zebrafish larvae; [2]): move less overall in the dark phase
- rate of recovery in the dark phase (decrease of movement over time) vs DMSO (5 dpf zebrafish larvae; [2]): recover less over time
- rate of recovery in the light challenge (increase of movement over time) vs DMSO (5 dpf zebrafish larvae; [2]): negative impact of locomotion over time

SMILES: CN1C(=O)CN=C(c2ccccc2)c2cc(Cl)ccc21 [diazepam]
- rate of recovery (slope) during light phases vs DMSO control (larvae; 0.25 μM): significantly higher slope, or rate of recovery
- rate of recovery (slope of linear regression) during the first light phase (Kruskal-Wallis) (larvae; Experiment 1 (diazepam), all dosages): faster rate of recovery
- mean distance moved over time in the light challenge vs control (larvae; Experiment 2 (diazepam), 2.5 μM, minute 10 to 20): increases movement over time faster than the control in the light challenge
- mean distance moved over time in the dark period vs control (larvae; Experiment 2 (diazepam), 2.5 μM, minute 20 to 30): decreases movement over time faster than the control in the dark period
- mean distance moved in the baseline period (LMM) (larvae; Experiment 2 (diazepam), minute 9 to 10): no significant difference found in mean distance moved in the baseline period
- dosages with significantly lower distance moved than the control fish (Tukey post hoc) (larvae; after ~10 minutes of exposure, Experiment 1 (diazepam)): ≥ 0.25 µM
- time×dosage and dosage×light phase number as predictors of mean distance moved during light phases (LMM) (larvae; light phases): Both fixed effects were significant predictors of mean distance moved
- response when the light is switched on (from trace) (larvae): stops the fish moving to the bottom of the tank
- anxiolytic effect (overall conclusion) (larvae; zebrafish, in vivo): anxiolytic effect
- effect on locomotor (5 dpf larvae; 5 dpf larvae, dose response): impairment diazepam has on locomotor

SMILES: CCO [ethanol]
- behaviour in the acclimation period (5 dpf larvae; 0.25% ethanol): start moving erratically
- behaviour when turning on the light (5 dpf larvae; 0.5% ethanol, most groups freeze): starts moving more than before
- rate of recovery in the dark phase (decrease of movement over time) vs DMSO (5 dpf zebrafish larvae; [2]): recovers faster
- rate of recovery in the light challenge (increase of movement over time) vs DMSO (5 dpf zebrafish larvae; [2]): negative impact of locomotion over time
- basal locomotion (last minute of baseline) vs DMSO (5 dpf zebrafish larvae; zebrafish, in vivo): moved significantly more than DMSO
- freezing in the light challenge vs DMSO (5 dpf zebrafish larvae; zebrafish, in vivo): froze less in the beginning of the light challenge
- movement in the beginning of the dark period / in the dark phase vs DMSO (5 dpf zebrafish larvae; zebrafish, in vivo): moves more at the beginning of the dark period compared to DMSO
